In PMC11769294, “(E)-1-(3-(3-Hydroxy-4-Methoxyphenyl)-1-(3,4,5-Trimethoxyphenyl)allyl)-1H-1,2,4-Triazole and Related Compounds: Their Synthesis and Biological Evaluation as Novel Antimitotic Agents Targeting Breast Cancer” (Pharmaceuticals, 2025):

Experiments:
[1] = tested on: MCF-10A human mammary epithelial cells; test: Cytotoxicity in MCF-10A cells (alamarBlue); format: cell-based; settings: 10 μM, 24 h
Method: Figure 9 Effect of compounds 22a (A) and 22b (B) on the cell viability of non-tumorigenic MCF-10A human mammary epithelial cells at 24, 48, and 72 h. Cells were treated with the compounds 22a and 22b at concentrations of 10 μM, 1 μM, 0.5 μM, and 0.4 μM for 24, 48, or 72 h. […] Cell viability was expressed as a percentage of vehicle control (ethanol 1% (v/v)) and was determined by an alamarBlue assay (average ± SEM of three independent experiments). Two-way ANOVA (Bonferroni post-test) was used to test for statistical significance (*, p < 0.05; **, p < 0.01; ***, p < 0.001).
HL-60 cells were suspension cells and the seeding density for the viability assay was 25,000 cells/mL. MCF-7 cells (adherent) were cultured in Minimum Essential Media (MEM) with GlutaMAX™-I, supplemented with 1% (v/v) non-essential amino acids, 10% (v/v) fetal bovine serum (FBS), purchased from BD Biosciences (Edmund Halley Road, Oxford, UK), and 1% (v/v) penicillin/streptomycin 5000 U/mL. The MCF-7 cells used in the screening of the compounds during these experiments were mycoplasma-free. The seeding density of MCF-7 in the viability assay was 25,000 cells/mL and 50,000 cells/mL in the FACS assay. Normal breast cells (MCF-10A) (adherent) were cultured in Dulbecco’s Modified Eagle Medium: Nutrient Mixture F-12 (DMEM/F12; Gibco) supplemented with 5% horse serum (Invitrogen, Waltham, MA, USA), 20 ng/mL epidermal growth factor (Merck Millipore, Burlington, MA, USA), 0.5 μg/mL hydrocortisone (Sigma, Kanagawa, Japan), 100 ng/mL cholera toxin (Sigma), 10 μg/mL insulin (Sigma), and penicillin/streptomycin 5000 U/mL (1%) (Gibco, Waltham, MA, USA). […] MDA-MB-231 cells were cultured in Dulbecco’s Modified Eagle Medium, which was supplemented with 10% (v/v) fetal bovine serum (FBS) and 1% (v/v) penicillin/streptomycin 5000 U/mL. When not in use, all cells were kept in liquid nitrogen and frozen in a freezing media made of 90% FBS and 10% DMSO. All cells were grown in an atmosphere of 5% CO2/95% air in T75 culture flasks. The media was changed every 2–3 days and media was always prewarmed to 37 °C. All were sub-cultured every 3–4 days by trypsinization using TrypLE™ Express enzyme when confluence was reached to allow growth, prevent excessive cell death, and minimize the risk of infections derived by over-confluence. For the cell viability assay, the number of cells per milliliter was 25,000 cells/mL while the FACS assay utilized 50,000 cells/mL. Cells were maintained at 37 °C in 5% CO2 in a humidified incubator.
The biochemical assays were performed in triplicate and on at least three independent occasions to facilitate the determination of mean values. For the viability assay, cells were grown until 80% confluent. Adherent cells such as MCF-7, MDA-MB-231, and MCF-10A were trypsinized to detach them from the flask, counted as previously described, and seeded in 96 well plates with a seeding density of 25,000 cells /mL (200 µL of suspension in each well so that the final number of cells per well was 5000) and 1 × 10^4 cells/well seeding density for suspension HL-60 cells. Adherent cells were incubated for 24 h after being seeded in the 96 well plate and treated on the following day, while suspension cells were treated on the same day of the seeding. In both cases, the incubation time after the treatment with the drug was 72 h. After 68 h incubation, the AlamarBlue was added (20 µL in each well) and the incubation time was completed. After 72 h, the change in color was measured by spectrofluorimetry at an excitation wavelength of 544 nm and emission wavelength of 590 nm. AlamarBlue is a cell viability indicator containing a compound called resazurin. AlamarBlue is water soluble, stable in culture media, non-toxic, and is permeable through the cell membrane. When resazurin (blue) enters the live cells, it is reduced to the fluorescent molecule resorufin (pink).

[2] = tested on: tubulin in MCF-7 breast cancer cells; test: Immunofluorescence confocal microscopy of microtubules; format: cell-based, human; settings: 16 h, 22b 10 μM, paclitaxel and phenstatin 1 μM
Method: Briefly, the MCF-7 cells were seeded at a density of 1 × 10^5 cells/mL on eight chamber glass slides (BD Biosciences). […] The cells were then washed in PBS, fixed for 20 min with 4% paraformaldehyde in PBS, and permeabilized in 0.5% Triton X-100. […] Images of the cells were obtained using Leica SP8 confocal microscopy (Wetzlar, Germany) with Leica application suite X software (Wetzlar, Germany). Experiments were performed on three independent occasions.
The micrograph images were obtained with Leica SP8 confocal microscopy utilizing Leica application suite X software. Representative confocal images of three separate experiments are shown. The scale bar indicates 25 μm.

HL-60 cells = test: alamarBlue cell viability assay; format: cell-based; settings: Homo sapiens
Method: Figure 7 Preliminary cell viability data for (A) triazoles 22b–d, 22f, 22g and imidazole 23d and (B) triazoles 26a–e and imidazoles 27a, 27b, 27e, 27f, 27h and 27i in HL-60 cells. Cell proliferation of HL-60 cells was determined with an alamarBlue assay (seeding density 2.5 × 10^4 cells/mL per well for 96-well plates). Compound concentrations of either 1 or 0.1 μM for 72 h were used to treat the cells (in triplicate) with control wells containing vehicle ethanol (1% v/v). The mean value ± SEM for three independent experiments is shown. The positive control was CA-4 (1.0 μM and 0.1 μM).
HL-60 cells were suspension cells and the seeding density for the viability assay was 25,000 cells/mL. […]
The biochemical assays were performed in triplicate and on at least three independent occasions to facilitate the determination of mean values. […] Adherent cells such as MCF-7, MDA-MB-231, and MCF-10A were trypsinized to detach them from the flask, counted as previously described, and seeded in 96 well plates with a seeding density of 25,000 cells /mL (200 µL of suspension in each well so that the final number of cells per well was 5000) and 1 × 10^4 cells/well seeding density for suspension HL-60 cells. […] After 72 h, the change in color was measured by spectrofluorimetry at an excitation wavelength of 544 nm and emission wavelength of 590 nm. […]

SMILES: COc1ccc(/C=C/C(c2cc(OC)c(OC)c(OC)c2)n2cncn2)cc1O (stereo not shown) [Compound 22b, (E)-5-(3-(1H-1,2,4-Triazol-1-yl)-3-(3,4,5-trimethoxyphenyl)prop-1-en-1-yl)-2-methoxyphenol]
- cell death [1]: approximately 50%
- effect on microtubule network [2]: disorganized microtubule network structure similar to that observed with phenstatin, together with multinucleation
- IC50 (HL-60 cells): 370 nM
- IC50 (HL-60 cells; 72 h): 366 ± 130 nM
